The source of these data is patent publication US20110172217A1, “RING-FUSED MORPHOLINE DERIVATIVE HAVING PI3K-INHIBITING ACTIVITY” (Shionogi & Co., Ltd., priority 2008, published 2011).

Where only a bound is given, the exact number is not on record here.

The nature of series [1]: Solubility test in artificial intestinal juice pH 6.8. It counts as physicochemical. The following applies: kinetic from dmso stock, artificial intestinal juice pH 6.8, 1% DMSO, 25° C. How it is done: The solubility of a compound was determined under a condition in which 1% DMSO was added. 10 mmol/L compound solution was prepared using DMSO, and then 6 μL of the compound solution was added to 594 μL of artificial intestinal juice in pH 6.8 (to 250 mL of 0.2 mol/L potassium dihydrogen phosphate reagent solution was added 118 mL of 0.2 mol/L NaOH reagent solution and water to provide a final volume of 1000 mL). After standing at 25° C. for 16 hours, the mixed solution was filtered with suction. The filtrate was diluted twice with methanol/water (1/1), and then a concentration in the filtration was measured with HPLC or LC/MS/MS by the absolute calibration method.

Series [2] concerns Salmonella typhimurium TA98 line, TA100 line. The series is described as follows: Fat Test (mutagenicity in Salmonella typhimurium). It counts as cell-based. Further details: key: When the mutagenicity is negative, the compound is shown as (−); When positive, the compound is shown as (+). Particulars: TA98 and TA100 lines, non-metabolism-activation and metabolism-activation conditions. The method, then:
20 μL of Salmonella enterica subsp. typhimurium (Salmonella typhimurium TA98 line, TA100 line) cryopreserved was inoculated to 10 mL of liquid nutrient medium (2.5% Oxoid nutrient broth No. 2) and then precultured at 37° C. for 10 hours with shaking. Regarding TA98 line, after 9 mL of a bacterial suspension was centrifuged (2000×g, 10 minutes) to remove the culture solution, the bacteria was suspended in 9 mL of Micro F buffer solution (K2HPO4: 3.5 g/L, KH2PO4: 1 g/L, (NH4)2SO4: 1 g/L, tri-sodium citric acid dihydrate: 0.25 g/L, MgSO4.7H2O: 0.1 g/L), and then added to 110 mL of Exposure media (Micro F buffer solution containing biotin: 8 μg/mL, histidine: 0.2 μg/mL, glucose: 8 mg/mL). Regarding TA 100 line, 120 mL of Exposure media was added to 3.16 mL of the bacterial suspension to prepare a test bacterial suspension. 12 μL of a solution of a test substance in DMSO (diluted eight times in a common ratio of 2 from the maximum dose of 50 mg/mL); 12 μL of DMSO as a negative control; 50 μg/mL 4-nitroquinoline-1-oxide solution in DMSO for TA98 line or 0.25 μg/mL 2-(2-furyl)-3-(5-nitro-2-furyl)acrylamide solution in DMSO as a positive control for TA 100 line in the case of a non-metabolism-activation condition; 12 μL of 40 μg/mL 2-aminoanthracene solution in DMSO for TA98 line or 20 μg/mL of 2-aminoanthracene solution in DMSO for TA100 line in the case of a metabolism-activation condition; were each mixed with 588 μL of the test bacterial suspension (in the case of a metabolism activation condition, a mixed solution of 498 μL of the test bacterial suspension and 90 μL S9 mix) and then cultured at 37° C. at 90 minutes with shaking. 460 μL of the bacterial suspension to which a test substance was exposed was mixed with 2300 μL of Indicator media (a Micro F buffer solution containing 8 μg/mL biotin, 0.2 μg/mL histidine, 8 mg/mL glucose, and 37.5 μg/mL bromocresol purple). […] Thus, in 48 wells per dose, the number of the bacteria-proliferation wells in which the color changed to yellow was counted, compared with a group of negative controls, and then evaluated. […]

For the next series, the target named is PI-3 kinase γ (Homo sapiens, UniProt P48736). The series is described as follows: PI3Kγ inhibitory activity, PI3-kinase HTRF assay (inhibition ratio). The following applies: 0.5 h, compound at 50 μmol/L. The format is biochemical. In a few lines: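 Human PI3Kγ was preincubated 10 min with compound and PIP2 substrate, then reacted 30 min at room temperature with ATP (40 μmol/L in the added solution); EDTA/biotin-PIP3 quenched. HTRF 665/620 nm ratio read after 18 h, normalized to no-compound (100%) and no-enzyme (0%) controls, gave % inhibition at 50 or 10 μmol/L compound.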
Chain of PI-3 kinase γ (P48736 whole entry): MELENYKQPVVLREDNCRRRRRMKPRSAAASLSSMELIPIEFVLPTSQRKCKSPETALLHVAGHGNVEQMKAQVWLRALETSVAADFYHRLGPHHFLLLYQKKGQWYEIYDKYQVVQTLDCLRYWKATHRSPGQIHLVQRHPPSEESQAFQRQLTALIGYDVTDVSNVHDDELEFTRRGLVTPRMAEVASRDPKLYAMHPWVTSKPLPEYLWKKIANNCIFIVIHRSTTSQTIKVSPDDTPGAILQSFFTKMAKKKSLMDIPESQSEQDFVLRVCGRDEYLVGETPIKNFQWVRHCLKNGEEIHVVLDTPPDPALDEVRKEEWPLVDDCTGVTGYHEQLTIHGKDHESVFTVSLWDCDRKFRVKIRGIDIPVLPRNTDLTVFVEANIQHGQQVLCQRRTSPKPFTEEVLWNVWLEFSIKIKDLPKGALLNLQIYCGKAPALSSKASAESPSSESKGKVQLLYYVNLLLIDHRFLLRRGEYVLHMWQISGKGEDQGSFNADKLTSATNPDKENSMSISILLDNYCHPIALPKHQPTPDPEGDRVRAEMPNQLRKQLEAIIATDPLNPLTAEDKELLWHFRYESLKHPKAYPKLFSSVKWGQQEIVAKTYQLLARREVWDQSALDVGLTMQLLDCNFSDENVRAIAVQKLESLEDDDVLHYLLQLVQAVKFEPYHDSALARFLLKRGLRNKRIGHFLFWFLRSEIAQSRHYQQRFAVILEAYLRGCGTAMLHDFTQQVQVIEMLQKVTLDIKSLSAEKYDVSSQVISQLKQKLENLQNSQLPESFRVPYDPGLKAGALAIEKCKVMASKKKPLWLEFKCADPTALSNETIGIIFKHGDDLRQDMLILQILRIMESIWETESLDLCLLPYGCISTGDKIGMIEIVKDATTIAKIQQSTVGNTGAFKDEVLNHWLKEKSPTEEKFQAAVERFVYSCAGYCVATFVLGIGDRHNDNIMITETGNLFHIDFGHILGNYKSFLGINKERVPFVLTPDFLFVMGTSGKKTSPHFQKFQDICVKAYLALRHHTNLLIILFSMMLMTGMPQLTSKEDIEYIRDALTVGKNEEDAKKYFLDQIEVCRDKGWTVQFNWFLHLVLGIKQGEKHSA

In the next series the target is T1, CYP1A2 (Homo sapiens, UniProt P05177).
T1 construct: enzyme: pooled human liver microsome 0.2 mg protein/mL; from tissue; host or cells: pooled human liver microsomes
T1 sequence (P05177 1-516): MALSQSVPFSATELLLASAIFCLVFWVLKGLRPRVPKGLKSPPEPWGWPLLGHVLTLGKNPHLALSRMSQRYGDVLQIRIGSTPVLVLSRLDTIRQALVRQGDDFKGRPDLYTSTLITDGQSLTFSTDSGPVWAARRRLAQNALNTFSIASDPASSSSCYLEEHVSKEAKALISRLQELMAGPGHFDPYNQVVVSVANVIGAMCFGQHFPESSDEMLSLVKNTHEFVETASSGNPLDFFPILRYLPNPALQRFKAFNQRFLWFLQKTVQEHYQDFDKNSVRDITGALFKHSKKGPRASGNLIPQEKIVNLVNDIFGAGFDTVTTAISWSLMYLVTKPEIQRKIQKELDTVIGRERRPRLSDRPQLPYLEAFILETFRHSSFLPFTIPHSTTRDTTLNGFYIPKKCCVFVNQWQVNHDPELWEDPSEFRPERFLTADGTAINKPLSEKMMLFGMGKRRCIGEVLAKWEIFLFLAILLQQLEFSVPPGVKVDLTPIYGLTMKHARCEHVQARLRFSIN
The series is described as follows: CYP inhibition test, O-de-ethylation of 7-ethoxyresorufin. The format is in vitro ADME. The following applies: pooled human liver microsome; one of 5 kinds. The text has this: (§1) O-de-ethylation of 7-ethoxyresorufin (CYP1A2), methyl-hydroxylation of tolbutamide (CYP2C9), 4′-hydroxylation of mephenyloin (CYP2C19), O-demethylation of dextromethorphan (CYP2D6), and hydroxylation of terfenadine (CYP3A4), which are typical substrate for metabolic reactions of human main CYP5 molecular species (CYP1A2, 2C9, 2C19, 2D6, and 3A4), were adopted as indexes.
(§2) The reaction conditions are as follows: substrate: 0.5 μmol/L of ethoxyresorufin (CYP1A2), 100 μmol/L of tolbutamide (CYP2C9), 50 μmol/L of S-mephenyloin (CYP2C19), […] of dextromethorphan (CYP2D6), and 1 μmol/L of terfenadine (CYP3A4); reaction time; 15 minutes; reaction temperature: 37° C.; enzyme: pooled human liver microsome 0.2 mg protein/mL; test drug concentration: 1, 5, 10, and 20 μmol/L (4 points).
(§3) In a 96-well plate, as a reaction solution, five kinds of substrates, a human liver microsome, and a test drug were added to 50 mmol/L Hepes buffer solution in the aforementioned ratio. A coenzyme NADPH was added to start a metabolic reaction, which is an index. After reacting at 37° C. for 15 minutes, a solution of methanol/acetonitrile (1/1 (v/v)) was added to quench the reaction. After centrifugation at 3000 rpm for 15 minutes, resorufin (CYP1A2 metabolite) in the supernatant was quantitated with a fluorescence multilabel counter, and hydroxylated tolbutamide (CYP2C9 metabolite), 4′-hydroxylated mephenyloin (CYP2C19 metabolite), […], terfenadine in alcohol form (CYP3A4 metabolite) were quantitated with LC/MS/MS.
(§4) The case wherein only DMSO (a solvent which dissolved a drug) was added to a reaction system was defined as a control (100%). When a test drug solution was added, the remaining activity (%) at each concentration was calculated, and then IC50 was calculated with a concentration and an inhibition ratio by an inverse estimation using a logistic model.
(Microsomes from liver hold many membrane-bound enzymes, among them those of drug oxidation.)

Series [3] in a line: Metabolic stability test, pooled human liver microsome. The format is in vitro ADME. The following applies: 2 μmol/L compound; human liver microsome 0.5 mg protein/mL, NADPH, 37° C. How it is done:
After a subject compound was reacted for a certain time using a commercially available pooled human liver microsome, a reacted sample and an unreacted sample are compared to calculate a survival ratio, and then the degree of metabolism in the liver was evaluated.
0.2 mL of a buffer solution (50 mmol/L of Tris-HCl in pH 7.4, 150 mmol/L of potassium chloride, and 10 mmol/L of magnesium chloride) containing a human liver microsome of 0.5 mg protein/mL was reacted in the presence of 1 mmol/L NADPH at 37° C. for 0 or 30 minutes (oxidative reaction). After reacting, 50 μL of the reaction solution was added to 100 μL of a solution of methanol/acetonitrile (1/1 (v/v)), mixed, and then centrifuged at 3000 rpm for 15 minutes. The test compound in the supernatant was quantitated with LC/MS/MS. The amount of the compound at a reaction time of 0 minute was defined as 100% and, based on that, the percentage of the test compound remained after reacting for 30 minutes was calculated.

In another series the target is T2, CYP3A4 (Homo sapiens, UniProt P08684).
T2 construct: enzyme: pooled human liver microsome 0.2 mg protein/mL; from tissue; host or cells: pooled human liver microsomes
T2 sequence (P08684 whole entry): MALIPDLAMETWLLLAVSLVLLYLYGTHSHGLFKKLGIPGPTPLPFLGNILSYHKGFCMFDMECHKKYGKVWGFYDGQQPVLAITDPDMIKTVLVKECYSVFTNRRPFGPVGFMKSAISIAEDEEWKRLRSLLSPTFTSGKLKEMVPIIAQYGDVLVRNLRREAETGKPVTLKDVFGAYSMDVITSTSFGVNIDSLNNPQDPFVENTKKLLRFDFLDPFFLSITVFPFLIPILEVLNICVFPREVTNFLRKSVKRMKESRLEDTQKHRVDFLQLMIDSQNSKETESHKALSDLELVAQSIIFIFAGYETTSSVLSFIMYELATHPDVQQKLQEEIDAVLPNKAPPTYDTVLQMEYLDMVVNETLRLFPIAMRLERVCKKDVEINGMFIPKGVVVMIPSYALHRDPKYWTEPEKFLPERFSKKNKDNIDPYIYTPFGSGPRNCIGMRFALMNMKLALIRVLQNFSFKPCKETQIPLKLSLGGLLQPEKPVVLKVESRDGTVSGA
Briefly: CYP inhibition test, hydroxylation of terfenadine. It counts as in vitro ADME. Particulars: pooled human liver microsome; one of 5 kinds.
Source text: as §1, §2, §3, §4

For a further series, the target named is T3, CYP2C9 (Homo sapiens, UniProt P11712).
T3 construct: enzyme: pooled human liver microsome 0.2 mg protein/mL; from tissue; host or cells: pooled human liver microsomes
T3 sequence (P11712 whole entry): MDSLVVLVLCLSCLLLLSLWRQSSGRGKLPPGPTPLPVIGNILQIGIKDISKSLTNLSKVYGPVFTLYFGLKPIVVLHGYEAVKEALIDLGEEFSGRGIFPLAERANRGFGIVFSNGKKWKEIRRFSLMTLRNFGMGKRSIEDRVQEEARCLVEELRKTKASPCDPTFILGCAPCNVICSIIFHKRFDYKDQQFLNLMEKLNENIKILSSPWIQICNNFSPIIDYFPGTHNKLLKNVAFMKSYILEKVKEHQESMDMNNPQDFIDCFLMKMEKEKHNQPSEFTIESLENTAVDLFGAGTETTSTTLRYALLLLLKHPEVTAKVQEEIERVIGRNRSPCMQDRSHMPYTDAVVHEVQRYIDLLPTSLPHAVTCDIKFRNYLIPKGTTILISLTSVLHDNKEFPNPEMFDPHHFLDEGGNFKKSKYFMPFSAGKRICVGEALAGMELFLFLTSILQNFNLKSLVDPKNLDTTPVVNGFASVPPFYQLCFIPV
The series is described as follows: CYP inhibition test, methyl-hydroxylation of tolbutamide. It counts as in vitro ADME. Particulars: pooled human liver microsome; one of 5 kinds.
Source text: as §1, §2, §3, §4

In the next series the target is T4, CYP2D6 (Homo sapiens, UniProt P10635).
T4 construct: enzyme: pooled human liver microsome 0.2 mg protein/mL; from tissue; host or cells: pooled human liver microsomes
T4 sequence (P10635 whole entry): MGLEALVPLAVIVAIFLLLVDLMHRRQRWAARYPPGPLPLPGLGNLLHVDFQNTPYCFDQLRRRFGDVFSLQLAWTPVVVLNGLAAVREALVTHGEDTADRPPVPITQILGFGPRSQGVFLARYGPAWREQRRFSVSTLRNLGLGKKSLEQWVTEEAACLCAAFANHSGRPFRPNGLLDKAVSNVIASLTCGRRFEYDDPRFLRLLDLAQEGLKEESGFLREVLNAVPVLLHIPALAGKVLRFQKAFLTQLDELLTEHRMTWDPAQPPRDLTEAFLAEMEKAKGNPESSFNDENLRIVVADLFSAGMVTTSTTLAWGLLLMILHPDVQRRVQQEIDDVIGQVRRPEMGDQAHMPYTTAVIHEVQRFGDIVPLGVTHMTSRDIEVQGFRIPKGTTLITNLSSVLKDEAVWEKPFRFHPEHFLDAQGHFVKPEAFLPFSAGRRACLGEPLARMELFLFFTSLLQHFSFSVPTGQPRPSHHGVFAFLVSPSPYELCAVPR
The series is described as follows: CYP inhibition test, O-demethylation of dextromethorphan. It counts as in vitro ADME. Particulars: pooled human liver microsome; one of 5 kinds.
Source text: as §1, §2, §3, §4

A further series deals with T5, CYP2C19 (Homo sapiens, UniProt P33261).
T5 construct: enzyme: pooled human liver microsome 0.2 mg protein/mL; from tissue; host or cells: pooled human liver microsomes
T5 sequence (P33261 whole entry): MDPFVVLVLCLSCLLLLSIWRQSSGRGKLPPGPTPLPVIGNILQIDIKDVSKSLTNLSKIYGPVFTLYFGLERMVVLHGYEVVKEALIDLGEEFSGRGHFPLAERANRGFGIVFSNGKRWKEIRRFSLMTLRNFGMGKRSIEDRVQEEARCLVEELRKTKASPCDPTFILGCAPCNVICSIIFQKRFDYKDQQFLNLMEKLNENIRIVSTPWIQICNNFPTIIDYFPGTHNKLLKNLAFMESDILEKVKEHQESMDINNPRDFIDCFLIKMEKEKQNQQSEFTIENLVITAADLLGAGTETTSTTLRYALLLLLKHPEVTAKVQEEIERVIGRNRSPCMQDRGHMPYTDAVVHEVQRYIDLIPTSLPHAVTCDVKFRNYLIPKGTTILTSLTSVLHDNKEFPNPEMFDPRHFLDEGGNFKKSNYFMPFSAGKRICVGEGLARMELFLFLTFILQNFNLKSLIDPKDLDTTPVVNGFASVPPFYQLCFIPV
Briefly: CYP inhibition test, 4′-hydroxylation of mephenyloin. The format is in vitro ADME. The following applies: pooled human liver microsome; one of 5 kinds.
Source text: as §1, §2, §3, §4

The target in series [4] is T6, human ether-a-go-go related gene (hERG) channel (Homo sapiens, UniProt Q12809).
T6 construct: expressed in transfected cells; host or cells: HEK293
T6 sequence (Q12809 whole entry): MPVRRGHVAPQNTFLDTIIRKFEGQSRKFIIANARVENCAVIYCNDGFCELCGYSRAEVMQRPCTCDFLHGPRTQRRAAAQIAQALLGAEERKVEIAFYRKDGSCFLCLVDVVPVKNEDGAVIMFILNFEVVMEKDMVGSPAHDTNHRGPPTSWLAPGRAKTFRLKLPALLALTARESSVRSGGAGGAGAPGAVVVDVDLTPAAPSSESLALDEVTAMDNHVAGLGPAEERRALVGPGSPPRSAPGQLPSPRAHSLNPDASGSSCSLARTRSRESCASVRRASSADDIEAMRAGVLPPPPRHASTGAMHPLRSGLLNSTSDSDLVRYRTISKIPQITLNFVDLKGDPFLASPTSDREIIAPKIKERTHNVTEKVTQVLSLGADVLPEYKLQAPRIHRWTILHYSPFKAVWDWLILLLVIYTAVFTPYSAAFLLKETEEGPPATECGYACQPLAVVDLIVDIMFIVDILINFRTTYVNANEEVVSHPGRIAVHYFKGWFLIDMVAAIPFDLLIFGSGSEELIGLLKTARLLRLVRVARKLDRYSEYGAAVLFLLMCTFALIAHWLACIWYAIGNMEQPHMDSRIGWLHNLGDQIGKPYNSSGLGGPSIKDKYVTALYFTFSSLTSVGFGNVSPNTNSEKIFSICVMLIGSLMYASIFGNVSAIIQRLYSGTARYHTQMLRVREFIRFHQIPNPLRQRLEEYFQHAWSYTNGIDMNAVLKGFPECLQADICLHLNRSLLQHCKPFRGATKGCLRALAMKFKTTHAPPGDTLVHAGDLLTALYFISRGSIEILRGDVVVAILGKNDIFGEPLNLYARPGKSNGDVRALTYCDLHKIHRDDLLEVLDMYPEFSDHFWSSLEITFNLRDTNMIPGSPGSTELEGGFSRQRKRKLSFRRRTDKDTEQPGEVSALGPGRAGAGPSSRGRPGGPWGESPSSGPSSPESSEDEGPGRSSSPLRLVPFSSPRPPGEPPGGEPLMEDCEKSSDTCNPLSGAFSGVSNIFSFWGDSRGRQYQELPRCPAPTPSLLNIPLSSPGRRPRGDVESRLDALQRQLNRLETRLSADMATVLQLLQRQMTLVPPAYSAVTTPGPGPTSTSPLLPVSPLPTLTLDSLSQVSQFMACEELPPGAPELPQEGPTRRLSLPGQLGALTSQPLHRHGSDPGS
The series is described as follows: hERG test, whole-cell patch-clamp, IKr. The format is cell-based. Particulars: 1 μmol/L compound; HEK293 cell expressing hERG. The source says:
For the purpose of risk evaluation of QT interval extension of electrocardiogram, the activity on delayed rectification K^+ current (IKr), which plays an important role in a cardiac ventricle repolarization process, was examined using the HEK293 cell that was made to express human ether-a-go-go related gene (hERG) channel.
Using an automatic patch-clamp system (PatchXpress 7000A, Axon Instruments Inc.), by a whole-cell patch-clamp method, after the cell was maintained at a membrane potential of −80 mV, IKr induced upon applying depolarizing stimulation of +50 mV for 2 seconds and further applying repolarizing stimulation of −50 mV for 2 seconds was recorded. After generated electric current became stable, a test substance dissolved at an intended concentration in extracellular fluid (137 mmol/L NaCl, 4 mmol/L KCl, 1.8 mmol/L CaCl2.2H2O, 1 mmol/L MgCl2.6H2O, 10 mmol/L glucose, 10 mmol/L HEPES (4-(2-hydroxyethyl)-1-piperazineethanesulfonic acid), pH=7.4) was applied to the cell for 10 minutes under room temperature condition. From the obtained IKr, the absolute value of the maximum tail current was measured using analysis software (DataXpress ver. 1, Molecular Devices Corporation) and the value of the electric current in a maintained membrane potential as baseline. Moreover, an inhibition ratio for the maximum tail current prior to the application of the test substance was calculated and then compared with a group of media-application (0.1% dimethylsulfoxide solution) to evaluate influence of the test substance on IKr.

`CC1SC(N2CCOc3cccnc32)=NC1=O` (stereo not shown) [Compound I-1]: the solubility (in general, how much of the substance goes into solution per volume) at 16 h in series [1] is over 50 µM. The mutagenicity entry in series [2] is recorded as “(−)”. Further, the inhibition (commonly the drop in the measured response relative to a control, in per cent) at 50 µM at PI-3 kinase γ was 87%.

With `CC1(C)SC(N2CCOc3cccnc32)=NC1=O` [Compound I-49], the IC50 against CYP1A2, against CYP3A4, against CYP2C9, at CYP2D6 and on CYP2C19 was over 20 µM throughout. Also, the solubility at 16 h in [1] is over 50 µM. Also, in series [3], the “percentage of test compound remained after reacting for 30 minutes” value was 90.1%. Moreover, the inhibition at 50 µM on PI-3 kinase γ is at least 95%.

With `O=C(O)c1cccc(Nc2cnc3c(c2)OCCN3C(=O)Nc2ccccc2)c1` [Compound I-138], the solubility at 16 h in [1] is over 50 µM. For the same compound, in series [2], the mutagenicity entry is reported as “(−)”. Besides, in [4], the “hERG inhibition ratio for the maximum tail current (IKr)” value is recorded as 11.1%.

For `O=C(O)CNC(=O)Nc1cnc2c(c1)OCCN2C(=O)Nc1ccccc1` [Compound I-239], the half-inhibitory concentration (IC50) against CYP1A2, at CYP3A4, against CYP2C9, on CYP2D6 and against CYP2C19 was over 20 µM throughout. In addition, the solubility at 16 h in series [1] is over 50 µM. The “percentage of test compound remained after reacting for 30 minutes” value in series [3] came to 100%. Further, the inhibition at 50 µM on PI-3 kinase γ is at least 95%.
